The subject of the test is HCV pseudoparticles. Kind of test: HCV pseudoparticle infection assay (luciferase reporter, Huh7 cells). In kind it is cell-based, HCV (genotype 1b E1 and E2 envelope). The following applies: Hepatitis C virus, genotype 1b, Huh-7, 48 h, HCV pseudoparticles (genotype 1b), luciferase activity 2 days after infection.

`Cn1cnc(C[C@H](NC(=O)c2ccc(Nc3nc(NC4(c5ccc(Cl)cc5)CC4)nc(OCC(F)(F)F)n3)cc2)C(=O)N[C@]2(C(=O)NS(=O)(=O)C(C)(C)C)C[C@H]2C2CC2)c1` [Example 8021] yielded an EC50 (class) of 0.5 to 100 nM.
For the compound `CC(C)(CNC(=O)c1ccc(Nc2nc(NC3(c4ccc(Cl)cc4)CC3)nc(OCC(F)(F)F)n2)cc1)C(=O)NS(=O)(=O)C(C)(C)C` [Example 2090], the EC50 (class) was in the range of 0.5 to 100 nM.
With `Cc1ccccc1S(=O)(=O)N1CCN(c2nc(Nc3ccc(C(=O)NS(=O)(=O)C4(CN(C)C)CC4)cc3)nc(OCC(F)(F)F)n2)CC1` [Example 8034], it took 23000 nM to reach a half-maximal effect (EC50). In addition, under “class”, the EC50 was 1000 to 5000 nM.
Where the note is “class”, `C[C@H](NC(=O)CCCNC(=O)c1ccc(Nc2nc(NC3(c4ccc(Cl)cc4)CC3)nc(OCC(F)(F)F)n2)cc1)C(=O)NS(C)(=O)=O` [Example 2054] showed an EC50 of 0.5 to 100 nM.
Compound `CC(C)C(=O)NS(=O)(=O)c1ccc(Nc2nc(NC3(c4ccc(Cl)cc4)CC3)nc(OCC(F)(F)F)n2)cc1` [Example 8007] registered an EC50 of 5400 nM. Moreover, the EC50 (class) lay within 1000 to 5000 nM.
For the setting “class”, `C[C@@H](NC(=O)CCCNC(=O)c1ccc(Nc2nc(NC3(c4ccc(Cl)cc4)CC3)nc(OCC(F)(F)F)n2)cc1)C(=O)NS(C)(=O)=O` [Example 2051, (R)-4-(4-(1-(4-chlorophenyl)cyclopropylamino)-6-(2,2,2-trifluoroethoxy)-1,3,5-triazin-2-ylamino)-N-(4-(1-(methylsulfonamido)-1-oxopropan-2-ylamino)-4-oxobutyl)benzamide] showed an EC50 of 0.5 to 100 nM.
The same measure, in the same setting: for `Cc1ccccc1C(=O)N1CCN(c2nc(Nc3ccc(C(=O)NS(=O)(=O)C4(CN(C)C)CC4)cc3)nc(OCC(F)(F)F)n2)CC1` [Example 8040] the value was 1000 to 5000 nM; for `O=C(NCC1(C(=O)NS(=O)(=O)C2CC2)CC1)c1ccc(Nc2nc(NC3(c4ccc(Cl)cc4)CC3)nc(OCC(F)(F)F)n2)cc1` [Example 2070], 0.5 to 100 nM; for `O=C(NS(=O)(=O)C1(CN2CC3CC3C2)CC1)c1ccc(Nc2nc(NC3(c4ccc(Cl)cc4)CC3)nc(OCC(F)(F)F)n2)cc1` (stereo not drawn) [Example 1024], 0.5 to 100 nM.
On the same count and under the same terms, for `C=C[C@@H]1C[C@]1(NC(=O)CCCCNC(=O)c1ccc(Nc2nc(NC3(c4ccc(Cl)cc4)CC3)nc(OCC(F)(F)F)n2)cc1)C(=O)NS(=O)(=O)C1CCC1` [Example 2026] the value was 0.5 to 100 nM.
For the compound `COCC1(S(=O)(=O)N(C)C(=O)c2ccc(Nc3nc(OC)nc(N(C)C4(c5ccc(Cl)cc5)CC4)n3)cc2)CC1` [Example 8009], the EC50 (class) fell in the range of 1000 to 5000 nM.
In turn, `CC(C)(C)OC(=O)N1CCC[C@H]1C(=O)NS(=O)(=O)CCNC(=O)c1ccc(Nc2nc(NC3(c4ccc(Cl)cc4)CC3)nc(OCC(F)(F)F)n2)cc1` [Example 4004] registered an EC50 of 2.6 nM. The compound further yielded an EC50 (class) of 0.5 to 100 nM.
With `CN(C)CC1(S(=O)(=O)NC(=O)c2ccc(Nc3nc(OCC(F)(F)F)nc(N4CCN(S(C)(=O)=O)CC4)n3)cc2)CC1` [Example 8022], the EC50 (class) fell in the range of 1000 to 5000 nM.
In the case of `O=C(NCC1(C(=O)NC2(C(=O)NS(=O)(=O)C3CC3)CC2)CC1)c1ccc(Nc2nc(NC3(c4ccc(Cl)cc4)CC3)nc(OCC(F)(F)F)n2)cc1` [Example 2067], for the setting “class”, the EC50 fell in the range of 0.5 to 100 nM.
`C=CS(=O)(=O)NC(=O)C(C)(C)CNC(=O)c1ccc(Nc2nc(NC3(c4ccc(Cl)cc4)CC3)nc(OCC(F)(F)F)n2)cc1` [Example 2086]: under “class”, the EC50 was 0.5 to 100 nM.

Source of the values: US8765944B2, “Compounds for the treatment of hepatitis C” (priority 2010, dated 2014).
